Our source for the IC50 and EC50 values is patent publication EP4810500A1, “IMIDAZOL-2-ONE DERIVATIVE AND USE THEREOF IN MEDICINE” (Haisco Pharmaceutical Group Co., Ltd., priority 2023, dated 2025).

Bounds are passed on as bounds.

One data set addresses T1, OATP1B1 (Homo sapiens, UniProt Q9Y6L6).
T1 construct: expressed in transfected cells; host or cells: HEK293
T1 sequence (Q9Y6L6 1-691): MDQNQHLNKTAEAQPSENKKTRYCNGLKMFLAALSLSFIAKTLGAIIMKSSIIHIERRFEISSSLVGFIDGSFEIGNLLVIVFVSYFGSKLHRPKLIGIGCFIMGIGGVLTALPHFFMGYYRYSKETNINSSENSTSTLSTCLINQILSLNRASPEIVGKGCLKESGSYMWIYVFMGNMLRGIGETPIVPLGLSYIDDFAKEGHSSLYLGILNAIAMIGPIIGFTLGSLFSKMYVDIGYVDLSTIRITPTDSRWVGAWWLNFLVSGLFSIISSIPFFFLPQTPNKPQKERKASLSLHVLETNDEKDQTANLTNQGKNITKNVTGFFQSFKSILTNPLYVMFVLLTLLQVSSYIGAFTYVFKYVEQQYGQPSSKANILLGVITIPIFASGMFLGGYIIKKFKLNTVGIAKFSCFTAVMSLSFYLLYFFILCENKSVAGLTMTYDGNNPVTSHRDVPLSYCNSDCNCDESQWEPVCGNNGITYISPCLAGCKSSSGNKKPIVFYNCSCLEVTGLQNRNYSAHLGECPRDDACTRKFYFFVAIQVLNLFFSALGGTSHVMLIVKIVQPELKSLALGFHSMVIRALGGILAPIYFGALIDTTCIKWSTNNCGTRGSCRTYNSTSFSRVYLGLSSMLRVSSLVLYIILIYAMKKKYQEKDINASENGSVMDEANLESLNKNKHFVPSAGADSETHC
Briefly: SLC transporter inhibition assay (HEK293-OATP1B1 cells). The data set is classed as in vitro ADME. The settings on record: test substance 0-30 µM, read-out: IC50 against OATP1B1.

For another data set, the target named is GLP-1R (Homo sapiens, UniProt P43220). The data set is described as follows: In vitro activity assay (cAMP HTRF, HEK293-CRE-luc-GLP-1R cells). The data set is classed as cell-based. Also on record: expressed in transfected cells; host or cells: HEK293 (HEK293-CRE-luc-GLP-1R). The settings on record: cAMP HTRF 665 nm/620 nm, 1 h incubation. Here is the method:
HEK293-CRE-luc-GLP-1R cells were seeded into a 384-well cell culture plate (Greiner #781946) at a certain cell density (5 µL/well). 5 µl/well of 2× working solution was added to the 384-well microplate. The microplate was sealed with parafilm and incubated in a 37°C 5% CO2 incubator (Thermo) for 1 h. Subsequently, the detection was performed using the cAMP-GS HIRANGE KIT (PerkinElmer, 62AM6PEB), and detection reagents were prepared according to the kit instruction manual. After the incubation, the detection reagents were added to the 384-well microplate, and the microplate was incubated for 1 h at room temperature in the dark. HTRF signals at 665 nm and 620 nm were then measured using a multimode microplate reader. Data were exported from the microplate reader in Excel format. GraphPad Prism was opened. The logarithm of the sample concentration was calculated. Using the logarithm of concentration as the x-axis and the 665 nm/620 nm ratio as the y-axis, four-parameter logistic fitting was performed to obtain the EC50 value of the curve. Table 1: EC50 of compounds against GLP-1
In general terms: TR-FRET usually uses a lanthanide donor and a delayed reading to cut background.

For the next data set, the target named is OATP1B3 (Homo sapiens, UniProt Q9NPD5). The data set is described as follows: in vitro. The conditions noted are these: oatp1b3 cells.
OATP1B3, sequence (Q9NPD5 whole entry, species assumed): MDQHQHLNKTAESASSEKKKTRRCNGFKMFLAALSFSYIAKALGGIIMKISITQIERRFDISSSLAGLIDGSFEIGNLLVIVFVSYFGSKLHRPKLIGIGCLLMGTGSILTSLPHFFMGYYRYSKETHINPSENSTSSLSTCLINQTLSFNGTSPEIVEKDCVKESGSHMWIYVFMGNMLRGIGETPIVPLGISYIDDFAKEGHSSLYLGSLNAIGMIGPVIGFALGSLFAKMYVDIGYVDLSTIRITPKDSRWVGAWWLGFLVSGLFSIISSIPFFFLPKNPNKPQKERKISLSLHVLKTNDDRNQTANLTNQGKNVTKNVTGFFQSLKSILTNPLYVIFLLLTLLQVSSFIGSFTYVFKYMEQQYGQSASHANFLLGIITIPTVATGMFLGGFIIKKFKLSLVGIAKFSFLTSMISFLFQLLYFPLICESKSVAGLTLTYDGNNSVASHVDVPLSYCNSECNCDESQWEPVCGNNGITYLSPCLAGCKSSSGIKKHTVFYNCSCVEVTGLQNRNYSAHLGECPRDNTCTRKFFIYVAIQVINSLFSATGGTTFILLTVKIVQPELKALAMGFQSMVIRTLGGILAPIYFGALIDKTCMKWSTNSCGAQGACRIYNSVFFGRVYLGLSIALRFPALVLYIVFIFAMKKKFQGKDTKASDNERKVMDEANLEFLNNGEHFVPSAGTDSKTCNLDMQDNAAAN
The next data set deals with T2, CYP2D6 (Homo sapiens, UniProt P10635).
T2 construct: from tissue; host or cells: human liver microsomes
T2 sequence (P10635 whole entry): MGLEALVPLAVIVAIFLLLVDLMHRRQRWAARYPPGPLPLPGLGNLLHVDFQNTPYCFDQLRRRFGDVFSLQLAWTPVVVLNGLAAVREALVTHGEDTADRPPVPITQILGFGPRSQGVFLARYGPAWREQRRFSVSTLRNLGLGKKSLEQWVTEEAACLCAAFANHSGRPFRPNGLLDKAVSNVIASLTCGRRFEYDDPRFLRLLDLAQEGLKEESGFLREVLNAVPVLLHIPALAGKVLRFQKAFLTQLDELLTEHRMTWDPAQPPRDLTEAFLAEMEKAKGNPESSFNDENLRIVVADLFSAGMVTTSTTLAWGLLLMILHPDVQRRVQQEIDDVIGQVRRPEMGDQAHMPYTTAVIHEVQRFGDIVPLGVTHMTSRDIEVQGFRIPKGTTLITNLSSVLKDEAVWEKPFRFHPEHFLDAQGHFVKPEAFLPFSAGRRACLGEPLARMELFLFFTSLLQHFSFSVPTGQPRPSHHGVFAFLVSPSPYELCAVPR
The data set is described as follows: CYP450 enzyme activity inhibition assay (human liver microsomes). It counts as in vitro ADME. The conditions noted are these: human, microsomes. Here is the method:
(§1) The purpose of this study was to evaluate the effects of the test compounds on the activities of five isoenzymes (CYP1A2, CYP2C9, CYP2C19, CYP2D6, and CYP3A4) of human liver microsomal cytochrome P450 (CYP) using an in vitro testing system. The specific probe substrates of CYP450 isoenzymes were incubated with human liver microsomes and test compounds of different concentrations, and reduced nicotinamide adenine dinucleotide phosphate (NADPH) was added to initiate the reaction. After the completion of the reaction, the sample was treated and liquid chromatography-tandem mass spectrometry (LC-MS/MS) was used to quantitatively detect metabolites produced by specific substrates. Changes in CYP enzyme activity were determined, and IC50 value was calculated to evaluate the inhibitory potential of the test compound on each CYP enzyme subtype.

The target in a further data set is T3, CYP1A2 (Homo sapiens, UniProt P05177).
T3 construct: from tissue; host or cells: human liver microsomes
T3 sequence (P05177 1-516): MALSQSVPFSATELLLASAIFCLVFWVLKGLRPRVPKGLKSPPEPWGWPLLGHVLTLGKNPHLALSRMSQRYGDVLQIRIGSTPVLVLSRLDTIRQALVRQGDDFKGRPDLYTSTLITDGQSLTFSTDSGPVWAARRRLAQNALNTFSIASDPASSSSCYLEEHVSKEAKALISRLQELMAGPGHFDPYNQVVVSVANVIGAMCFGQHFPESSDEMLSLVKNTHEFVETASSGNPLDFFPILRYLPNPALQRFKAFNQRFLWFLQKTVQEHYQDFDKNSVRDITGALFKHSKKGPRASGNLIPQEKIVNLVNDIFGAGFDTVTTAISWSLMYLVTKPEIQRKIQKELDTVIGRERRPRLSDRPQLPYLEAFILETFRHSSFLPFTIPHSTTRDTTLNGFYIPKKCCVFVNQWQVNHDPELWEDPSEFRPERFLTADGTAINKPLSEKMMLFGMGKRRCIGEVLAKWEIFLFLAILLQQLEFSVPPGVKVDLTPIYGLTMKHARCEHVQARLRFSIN
The data set is described as above. The conditions noted are these: human, microsomes. It counts as in vitro ADME. How it is done:
as §1

The next data set deals with T4, CYP3A4 (Homo sapiens, UniProt P08684).
T4 construct: from tissue; host or cells: human liver microsomes
T4 sequence (P08684 whole entry): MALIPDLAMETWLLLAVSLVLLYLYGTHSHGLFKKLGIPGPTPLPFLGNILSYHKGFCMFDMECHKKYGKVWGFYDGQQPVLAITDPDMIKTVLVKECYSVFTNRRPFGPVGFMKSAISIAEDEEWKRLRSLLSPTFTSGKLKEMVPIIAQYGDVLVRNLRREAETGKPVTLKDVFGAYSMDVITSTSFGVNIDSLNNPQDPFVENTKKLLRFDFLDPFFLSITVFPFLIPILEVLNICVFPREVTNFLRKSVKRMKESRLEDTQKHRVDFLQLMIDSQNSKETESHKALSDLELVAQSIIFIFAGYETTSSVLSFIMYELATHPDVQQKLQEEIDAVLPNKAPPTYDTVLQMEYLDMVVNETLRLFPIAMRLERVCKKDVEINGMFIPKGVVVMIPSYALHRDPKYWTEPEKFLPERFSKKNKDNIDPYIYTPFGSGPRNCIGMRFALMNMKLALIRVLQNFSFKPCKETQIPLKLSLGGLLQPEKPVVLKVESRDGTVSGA
The data set is described as above. The data set is classed as in vitro ADME. The settings on record: human, microsomes. How it is done: as §1

The next data set deals with T5, CYP2C19 (Homo sapiens, UniProt P33261).
T5 construct: from tissue; host or cells: human liver microsomes
T5 sequence (P33261 whole entry): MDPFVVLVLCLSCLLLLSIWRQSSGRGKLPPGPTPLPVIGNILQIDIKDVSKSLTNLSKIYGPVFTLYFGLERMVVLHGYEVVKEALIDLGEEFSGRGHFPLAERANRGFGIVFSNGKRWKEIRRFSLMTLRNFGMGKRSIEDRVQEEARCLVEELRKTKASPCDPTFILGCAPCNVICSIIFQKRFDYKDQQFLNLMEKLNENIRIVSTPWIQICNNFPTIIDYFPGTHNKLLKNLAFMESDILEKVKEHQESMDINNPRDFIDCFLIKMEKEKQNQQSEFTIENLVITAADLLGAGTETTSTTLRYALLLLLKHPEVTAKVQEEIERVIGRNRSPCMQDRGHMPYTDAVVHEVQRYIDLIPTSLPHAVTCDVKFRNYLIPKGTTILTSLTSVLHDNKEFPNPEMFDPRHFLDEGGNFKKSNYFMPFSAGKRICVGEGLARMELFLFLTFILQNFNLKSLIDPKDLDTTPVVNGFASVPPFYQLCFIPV
Described as above. It counts as in vitro ADME. The settings on record: human, microsomes. Here is the method: as §1

The target of another data set is T6, CYP2C9 (Homo sapiens, UniProt P11712).
T6 construct: from tissue; host or cells: human liver microsomes
T6 sequence (P11712 whole entry): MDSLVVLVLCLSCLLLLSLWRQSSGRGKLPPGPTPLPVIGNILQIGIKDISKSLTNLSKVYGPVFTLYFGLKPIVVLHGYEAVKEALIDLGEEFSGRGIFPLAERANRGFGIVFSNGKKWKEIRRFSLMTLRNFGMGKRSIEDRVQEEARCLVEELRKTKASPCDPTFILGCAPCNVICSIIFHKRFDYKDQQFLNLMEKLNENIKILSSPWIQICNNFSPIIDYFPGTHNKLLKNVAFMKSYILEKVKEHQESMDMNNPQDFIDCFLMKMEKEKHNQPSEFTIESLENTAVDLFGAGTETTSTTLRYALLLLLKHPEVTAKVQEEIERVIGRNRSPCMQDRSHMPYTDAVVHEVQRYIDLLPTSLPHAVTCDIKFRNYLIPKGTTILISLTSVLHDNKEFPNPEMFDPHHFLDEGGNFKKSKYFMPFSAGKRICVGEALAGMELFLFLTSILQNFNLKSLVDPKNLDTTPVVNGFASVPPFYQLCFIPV
Described as above. The data set is classed as in vitro ADME. The settings on record: human, microsomes. Here is the method: as §1

As a reminder, the IC50 is the midpoint of a concentration-inhibition curve. A word on the EC50: it is the midpoint of the concentration-response curve. A higher EC50 goes with a need for much substance.

GLP-1R, sequence (P43220 24-463): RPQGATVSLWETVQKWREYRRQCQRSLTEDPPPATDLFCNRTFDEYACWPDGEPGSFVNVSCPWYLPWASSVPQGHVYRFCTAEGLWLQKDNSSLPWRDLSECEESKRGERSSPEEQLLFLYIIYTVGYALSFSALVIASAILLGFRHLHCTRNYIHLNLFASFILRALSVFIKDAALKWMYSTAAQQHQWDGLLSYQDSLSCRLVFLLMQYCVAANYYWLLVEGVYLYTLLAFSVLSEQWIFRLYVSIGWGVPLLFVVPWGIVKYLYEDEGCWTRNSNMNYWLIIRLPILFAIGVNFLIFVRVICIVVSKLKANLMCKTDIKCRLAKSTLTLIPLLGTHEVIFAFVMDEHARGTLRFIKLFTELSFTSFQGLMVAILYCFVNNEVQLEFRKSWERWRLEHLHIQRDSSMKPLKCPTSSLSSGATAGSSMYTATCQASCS
Description for OATP1B1: (§2) The objective of this study was to evaluate the inhibitory effects of the test substance on the activities of the transporters OATP1B1 and OATP1B3.
(§3) HEK293-OATP1B1 and OATP1B3 cells were incubated with and without the test substance (0-30 µM) for the corresponding time. Samples were then collected, and the substrate content in the samples was detected by liquid chromatography-tandem mass spectrometry (LC-MS/MS). By calculating the transport activity of the transporter with and without the test substance, the percentage of transporter activity of the transporter-expressing cells at different administration concentrations of the test substance (%VC (Vehicle Control, solvent control), the percentage of transport activity of the transporter with and without the test substance) was obtained, and the half-maximal inhibitory concentration (IC50) was calculated from this.
Description for OATP1B3: as §2, §3

On to `C[C@H]1c2c(nn(-c3ccc(F)c(C4(F)CC4)c3)c2-n2ccn(-c3ccc4c(c3)N(C)C(=O)C43CCOCC3)c2=O)CCN1C(=O)c1cc2cc([C@H]3CCOC(C)(C)C3)ccc2n1[C@@]1(c2noc(=O)[nH]2)C[C@@H]1C` [Compound 6], for which the IC50 at OATP1B1 was greater than 2 µM; on OATP1B3 it was greater than 1 µM; on CYP2D6, greater than 30 µM; on CYP1A2 it was greater than 30 µM; on CYP3A4 it was greater than 30 µM; at CYP2C19 it was greater than 30 µM. This compound also showed a half-maximal inhibitory concentration (IC50) against CYP2C9 greater than 30 µM. At GLP-1R, this compound came in with an EC50 of less than 0.001 µM.
